Source: patent US20180243304A1, “PHARMACEUTICAL COMBINATIONS COMPRISING (A) THE CYCLIN DEPENDENT KINASE 4/6 (CDK4/6) INHIBITOR LEE011 (=RIBOCICLIB), AND (B) THE EPIDERMAL GROWTH FACTOR RECEPTOR (EGFR) INHIBITOR ERLOTINIB, FOR THE TREATMENT OR PREVENTION OF CANCER” (Novartis AG, priority 2015, published 2018)

Assays:
LoVo = test: Cell proliferation (cell count by microscopy), LoVo; assay type: cell-based; conditions: Homo sapiens; LoVo (KRAS), 96 h treatment, single agent tested 13 nM-10 μM; 50% of cell counts relative to DMSO
Description: (§1) The debris counts were subtracted from raw nuclei counts.
(§2) The model input were inhibition values per drug dose: […]

GP2d = test: Cell proliferation (cell count by microscopy), GP2d; assay type: cell-based; conditions: GP2d (KRAS, PIK3CA), 72 h treatment, single agent tested 13 nM-10 μM; 50% of cell counts relative to DMSO
Description: as §1, §2

LS-180 = test: Cell proliferation (cell count by microscopy), LS-180; assay type: cell-based; conditions: Homo sapiens, LS180; LS-180 (KRAS, PIK3CA), 72 h treatment, single agent tested 13 nM-10 μM; 50% of cell counts relative to DMSO
Description: as §1, §2

DLD-1 = test: Cell proliferation (cell count by microscopy), DLD-1; assay type: cell-based; conditions: Homo sapiens; DLD-1 (KRAS, PIK3CA), 72 h treatment, single agent tested 13 nM-10 μM; 50% of cell counts relative to DMSO
Description: as §1, §2

COLO-320 = test: Cell proliferation (cell count by microscopy), COLO-320; assay type: cell-based; conditions: Homo sapiens; COLO-320 (no driver mutation listed), 72 h treatment, single agent tested 13 nM-10 μM; 50% of cell counts relative to DMSO
Description: as §1, §2

SW837 = test: Cell proliferation (cell count by microscopy), SW837; assay type: cell-based; conditions: Homo sapiens; SW837 (KRAS), 72 h treatment, single agent tested 13 nM-10 μM; 50% of cell counts relative to DMSO
Description: as §1, §2

SW480 = test: Cell proliferation (cell count by microscopy), SW480; assay type: cell-based; conditions: Homo sapiens; SW480 (KRAS), 72 h treatment, single agent tested 13 nM-10 μM; 50% of cell counts relative to DMSO
Description: as §1, §2

HCT-116 = test: Cell proliferation (cell count by microscopy), HCT-116; assay type: cell-based; conditions: Homo sapiens; HCT-116 (KRAS, PIK3CA), 72 h treatment, single agent tested 13 nM-10 μM; 50% of cell counts relative to DMSO
Description: as §1, §2

LIM2551 = test: Cell proliferation (cell count by microscopy), LIM2551; assay type: cell-based; conditions: LIM2551 (BRAF, PIK3CA), 72 h treatment, single agent tested 13 nM-10 μM; 50% of cell counts relative to DMSO
Description: as §1, §2

COLO-205 = test: Cell proliferation (cell count by microscopy), COLO-205; assay type: cell-based; conditions: Homo sapiens; COLO-205 (BRAF), 72 h treatment, single agent tested 13 nM-10 μM; 50% of cell counts relative to DMSO
Description: as §1, §2

HT-29 = test: Cell proliferation (cell count by microscopy), HT-29; assay type: cell-based; conditions: Homo sapiens; HT-29 (BRAF, PIK3CA), 72 h treatment, single agent tested 13 nM-10 μM; 50% of cell counts relative to DMSO
Description: as §1, §2

RKO = test: Cell proliferation (cell count by microscopy), RKO; assay type: cell-based; conditions: Homo sapiens; RKO (BRAF, PIK3CA), 72 h treatment, single agent tested 13 nM-10 μM; 50% of cell counts relative to DMSO
Description: as §1, §2

OUMS-23 = test: Cell proliferation (cell count by microscopy), OUMS-23; assay type: cell-based; conditions: OUMS-23 (BRAF), 72 h treatment, single agent tested 13 nM-10 μM; 50% of cell counts relative to DMSO
Description: as §1, §2

LS411N = test: Cell proliferation (cell count by microscopy), LS411N; assay type: cell-based; conditions: Homo sapiens, LS-411N; LS411N (BRAF), 72 h treatment, single agent tested 13 nM-10 μM; 50% of cell counts relative to DMSO
Description: as §1, §2

[1] = system: 15 colorectal cancer cell lines; conditions: single agent, 13 nM-10 μM
Description: The compounds were dissolved in 100% DMSO (Sigma, Catalog number D2650) at concentrations of 20 mM and stored at -20° C. until use.
All cell line media were supplemented with 10% FBS (HyClone, Catalog number SH30071.03).
Cell lines were cultured in 37° C. and 5% CO2 incubator and expanded in T-75 flasks. In all cases cells were thawed from frozen stocks, expanded through ≤1 passage using 1:3 dilutions, counted and assessed for viability using a ViCell counter (Beckman-Coulter) prior to plating. […] All cell lines were determined to be free of mycoplasma contamination as determined by a PCR detection methodology performed at Idexx Radil (Columbia, Mo., USA) and correctly identified by detection of a panel of SNPs.
The compound's effect on cell proliferation was calculated from the cell counts of the treatments relative to the cell counts of the negative control (DMSO), in FIG. 1 denoted as ‘Normalized cell count’ (=‘xnorm’) on the y-axis. […] The model input were inhibition values per drug dose:
I=1-xnorm • I: Inhibition • xnorm: normalized cell count (median of three replicates) […]
C=ΣConc(Idata*(Idata−Imodel)) • Idata: measured inhibition • Imodel: inhibition according to HSA null hypothesis
Robust combination z-scores (zC) were calculated as the ratio of the treatments' combination scores C and the median absolute deviation (mad) of non-interacting combinations: […]

IC50 (LoVo): 0.716 µM
IC50 (DLD-1): 7.06 µM
IC50 (COLO-320): 6.92 µM
IC50 (SW837): > 10 µM
IC50 (SW480): > 10 µM
IC50 (HCT-116): > 10 µM
IC50 (COLO-205): > 10 µM
IC50 (HT-29): > 10 µM
cell lines in which IC50s were achieved for the concentration range tested [1]: 5/15
Structure (SMILES): C#Cc1cccc(Nc2ncnc3cc(OCCOC)c(OCCOC)cc23)c1 [Erlotinib, N-(3-ethynylphenyl)-6,7-bis(2-methoxyethoxy)quinazolin-4-amine]
IC50 (GP2d): 8.86 µM
IC50 (LS-180): > 10 µM
IC50 (LIM2551): > 10 µM
IC50 (RKO): > 10 µM
IC50 (OUMS-23): > 10 µM
IC50 (LS411N): > 10 µM
